Reference: ChEMBL document CHEMBL1137334 (J Med Chem, 2006)
Converted amounts (≈) assume the structure as drawn.

Assays:
A549 [1] = assay: Inhibition of A549 cell migration by microdroplet migration assay; assay type: functional, cell-based; conditions: Homo sapiens
[2] = biological target: Vascular endothelial growth factor receptor 2 (Homo sapiens, UniProt P35968); assay: Inhibition of KDR
[3] = biological target: Proto-oncogene tyrosine-protein kinase Src (Homo sapiens, UniProt P12931)
Description: Inhibition of human c-Src in NIH3T3 cells

[4] = AUC (0-24h) in mouse at 20 mg/kg, po; assay type: ADME, organism-based; set-up: time < 24 hr, dose 20 mg/kg, route oral; conditions: plasma
[5] = Percent of unbound ligand in rat plasma; assay type: ADME, organism-based
[6] = Dissociation constant, pKa of the basic side chain of compound; assay type: physicochemical
[7] = Lipophilicity, log D at pH 7.4; assay type: physicochemical; conditions: buffer
[8] = Aqueous solubility at pH 7.4; assay type: physicochemical
A549 [9] = assay: Inhibition of paxillin phosphorylation in A549 cells by Western blotting at 1 uM; assay type: functional; conditions: Homo sapiens
Calu-6 [10] = assay: Inhibition of FAK phosphorylation in Calu-6 xenograft tumor model at 20 mg/kg/day, po; assay type: functional; conditions: Homo sapiens
[11] = Bioavailability in female rat at 25 mg/kg, po and 2 mg/kg, iv; assay type: ADME, organism-based; conditions: in vivo
[12] = Percent of unbound ligand in dog plasma; assay type: ADME, organism-based, Canis lupus familiaris
[13] = (§1) Half life in rat at 25 mg/kg, po and 2 mg/kg, iv; assay type: ADME, organism-based; conditions: in vivo
HUVEC [14] = assay: Inhibition of VEGF-stimulated HUVEC cell growth; assay type: functional, cell-based; conditions: Homo sapiens
[15] = Permeability from apical to basolateral side of NIH 3T3 cell; assay type: ADME, cell-based, NIH3T3; conditions: mouse, not told; read-out: permeability
[16] = Bioavailability in male rat at 25 mg/kg, po and 2 mg/kg, iv; assay type: ADME, organism-based; conditions: in vivo
Calu-6 [17] = assay: Inhibition of paxillin phosphorylation in Calu-6 xenograft tumor model at 20 mg/kg/day, po; assay type: functional; conditions: Homo sapiens
[18] = Volume of distribution in male rat at 25 mg/kg, po and 2 mg/kg, iv; assay type: ADME, organism-based; conditions: in vivo, read-out: Vdss
[19] = biological target: Vascular endothelial growth factor receptor 1 (Homo sapiens, UniProt P17948); assay: Inhibition of recombinant FLT1 by ELISA
[20] = biological target: Fibroblast growth factor receptor 1 (Homo sapiens, UniProt P11362); assay: Inhibition of recombinant FGFR1 by ELISA
[21] = (§2) Volume of distribution in male dog; assay type: ADME, organism-based, Canis lupus familiaris; conditions: male, in vivo, read-out: Vdss
[22] = Clearance in male dog; assay type: ADME, organism-based, Canis lupus familiaris; conditions: in vivo
[23] = biological target: c-Jun N-terminal kinase, JNK (Homo sapiens, UniProt P45983+P53779+P45984); assay: Inhibition of JNK; assay type: protein assay
[24] = biological target: Vascular endothelial growth factor receptor 3 (Homo sapiens, UniProt P35916); assay: Inhibition of FLT4 by ELISA
[25] = biological target: 3-phosphoinositide-dependent protein kinase 1 (Homo sapiens, UniProt O15530); assay: Inhibition of PDK
[26] = biological target: Tyrosine-protein kinase CSK (Homo sapiens, UniProt P41240); assay: Inhibition of recombinant CSK by ELISA
[27] = biological target: Glycogen synthase kinase-3 beta (Homo sapiens, UniProt P49841); assay: Inhibition of GSK3-beta
[28] = biological target: Dual specificity mitogen-activated protein kinase kinase; MEK1/2 (Homo sapiens, UniProt P36507+Q02750); assay: Inhibition of MAPKK; assay type: protein assay
[29] = as §1; assay type: ADME, organism-based; conditions: in vivo; remark: listed apart in the source
[30] = Aqueous solubility at pH 7.0; assay type: physicochemical
[31] = Clearance in male rat at 25 mg/kg, po and 2 mg/kg, iv; assay type: ADME, organism-based; conditions: in vivo
[32] = biological target: Platelet-derived growth factor receptor alpha (Homo sapiens, UniProt P16234); assay: Inhibition of recombinant PDGFRalpha by ELISA
NIH3T3 = assay: Antiproliferative activity against NIH 3T3 cells xenografted in athymic rat measured as inhibition of tumor volume at 6 mg/kg/day after 18 days; assay type: functional; conditions: NIH3T3, 432 h
[33] = (§3) Half life in male dog; assay type: ADME, organism-based, Canis lupus familiaris; conditions: male, in vivo
[34] = Percent of unbound ligand in human plasma; assay type: ADME, organism-based
[35] = biological target: Cyclin-dependent kinase 2 (Homo sapiens, UniProt P24941); assay: Inhibition of CDK2 by SPA
K562 = assay: Antiproliferative activity against huamn K562 cell line; assay type: functional, cell-based; conditions: Homo sapiens
Aurora kinase B = Aurora kinase B (Homo sapiens, UniProt Q96GD4); assay: Inhibition of recombinant Aurora B by ELISA
[36] = Inhibition of PI3K; set-up: species or system Homo sapiens
[37] = Clearance in female rat at 25 mg/kg, po and 2 mg/kg, iv; assay type: ADME, organism-based; conditions: in vivo
[38] = biological target: cAMP-dependent protein kinase (PKA) (Homo sapiens, UniProt P22694+P17612+P22612); assay: Inhibition of PKA; assay type: protein assay
[39] = Terminal half life in po dosed human; assay type: ADME, organism-based; conditions: in vivo, read-out: beta t1/2 (converted)
[40] = Volume of distribution in female rat at 25 mg/kg, po and 2 mg/kg, iv; assay type: ADME, organism-based; conditions: in vivo, read-out: Vdss
[41] = Bioavailability in male dog; assay type: ADME, organism-based, Canis lupus familiaris; conditions: in vivo
HUVEC [42] = assay: Inhibition of FGF-stimulated HUVEC cell growth; assay type: functional, cell-based; conditions: Homo sapiens
[43] = Inhibition of Chk; set-up: species or system Homo sapiens
Canis familiaris [44] = species: Canis familiaris; assay: as §2; assay type: ADME, organism-based, Canis lupus familiaris; conditions: in vivo
Canis familiaris [45] = species: Canis familiaris; assay: as §3; assay type: ADME, organism-based, Canis lupus familiaris; conditions: in vivo

Sequence of Proto-oncogene tyrosine-protein kinase Src (P12931 2-536 limits assumed): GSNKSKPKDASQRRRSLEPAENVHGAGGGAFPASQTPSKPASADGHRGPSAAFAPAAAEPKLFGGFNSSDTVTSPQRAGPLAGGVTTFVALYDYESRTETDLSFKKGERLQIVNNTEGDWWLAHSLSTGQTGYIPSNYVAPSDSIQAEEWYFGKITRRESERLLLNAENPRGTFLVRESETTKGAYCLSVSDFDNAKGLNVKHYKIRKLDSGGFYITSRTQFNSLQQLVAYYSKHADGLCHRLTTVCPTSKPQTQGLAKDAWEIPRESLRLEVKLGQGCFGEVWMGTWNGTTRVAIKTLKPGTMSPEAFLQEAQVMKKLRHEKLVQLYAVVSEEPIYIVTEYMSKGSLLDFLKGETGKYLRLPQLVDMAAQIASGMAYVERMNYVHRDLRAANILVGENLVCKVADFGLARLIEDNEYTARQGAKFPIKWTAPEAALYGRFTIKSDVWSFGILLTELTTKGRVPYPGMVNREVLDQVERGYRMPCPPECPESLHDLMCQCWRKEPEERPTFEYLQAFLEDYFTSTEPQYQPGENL
Sequence of Vascular endothelial growth factor receptor 2 (P35968 whole entry): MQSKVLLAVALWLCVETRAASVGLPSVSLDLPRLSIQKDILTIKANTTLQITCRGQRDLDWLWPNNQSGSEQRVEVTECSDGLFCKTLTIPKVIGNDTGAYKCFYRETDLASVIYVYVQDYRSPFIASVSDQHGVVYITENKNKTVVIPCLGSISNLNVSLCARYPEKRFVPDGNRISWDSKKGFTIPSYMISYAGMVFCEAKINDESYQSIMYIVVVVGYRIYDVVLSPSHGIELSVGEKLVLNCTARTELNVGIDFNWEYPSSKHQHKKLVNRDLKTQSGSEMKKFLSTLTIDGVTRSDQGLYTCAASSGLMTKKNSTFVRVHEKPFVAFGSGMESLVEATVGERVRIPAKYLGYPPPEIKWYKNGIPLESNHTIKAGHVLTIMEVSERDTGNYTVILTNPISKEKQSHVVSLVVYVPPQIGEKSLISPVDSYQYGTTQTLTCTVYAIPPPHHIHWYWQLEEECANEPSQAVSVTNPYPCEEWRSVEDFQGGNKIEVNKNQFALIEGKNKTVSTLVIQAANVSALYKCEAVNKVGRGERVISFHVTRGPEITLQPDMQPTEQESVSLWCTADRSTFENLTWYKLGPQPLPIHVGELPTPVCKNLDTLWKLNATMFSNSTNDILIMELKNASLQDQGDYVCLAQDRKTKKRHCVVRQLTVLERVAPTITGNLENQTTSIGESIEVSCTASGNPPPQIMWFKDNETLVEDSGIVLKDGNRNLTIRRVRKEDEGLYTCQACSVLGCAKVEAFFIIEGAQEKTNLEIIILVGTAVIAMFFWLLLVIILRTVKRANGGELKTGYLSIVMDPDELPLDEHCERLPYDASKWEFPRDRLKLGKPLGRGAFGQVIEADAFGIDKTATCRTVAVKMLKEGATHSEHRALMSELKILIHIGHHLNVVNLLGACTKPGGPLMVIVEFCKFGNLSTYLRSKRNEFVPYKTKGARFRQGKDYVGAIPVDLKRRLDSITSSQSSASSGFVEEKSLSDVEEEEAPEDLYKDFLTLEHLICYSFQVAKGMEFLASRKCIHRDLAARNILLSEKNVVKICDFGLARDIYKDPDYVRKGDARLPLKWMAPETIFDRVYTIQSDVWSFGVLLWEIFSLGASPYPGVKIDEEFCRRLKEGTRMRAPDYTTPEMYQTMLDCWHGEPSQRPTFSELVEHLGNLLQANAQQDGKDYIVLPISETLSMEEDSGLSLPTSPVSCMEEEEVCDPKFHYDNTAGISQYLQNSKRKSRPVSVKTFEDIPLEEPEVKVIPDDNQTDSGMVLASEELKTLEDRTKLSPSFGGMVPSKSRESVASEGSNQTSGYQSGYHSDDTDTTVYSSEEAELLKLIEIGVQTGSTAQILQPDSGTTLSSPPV
Sequence of Vascular endothelial growth factor receptor 3 (P35916 whole entry): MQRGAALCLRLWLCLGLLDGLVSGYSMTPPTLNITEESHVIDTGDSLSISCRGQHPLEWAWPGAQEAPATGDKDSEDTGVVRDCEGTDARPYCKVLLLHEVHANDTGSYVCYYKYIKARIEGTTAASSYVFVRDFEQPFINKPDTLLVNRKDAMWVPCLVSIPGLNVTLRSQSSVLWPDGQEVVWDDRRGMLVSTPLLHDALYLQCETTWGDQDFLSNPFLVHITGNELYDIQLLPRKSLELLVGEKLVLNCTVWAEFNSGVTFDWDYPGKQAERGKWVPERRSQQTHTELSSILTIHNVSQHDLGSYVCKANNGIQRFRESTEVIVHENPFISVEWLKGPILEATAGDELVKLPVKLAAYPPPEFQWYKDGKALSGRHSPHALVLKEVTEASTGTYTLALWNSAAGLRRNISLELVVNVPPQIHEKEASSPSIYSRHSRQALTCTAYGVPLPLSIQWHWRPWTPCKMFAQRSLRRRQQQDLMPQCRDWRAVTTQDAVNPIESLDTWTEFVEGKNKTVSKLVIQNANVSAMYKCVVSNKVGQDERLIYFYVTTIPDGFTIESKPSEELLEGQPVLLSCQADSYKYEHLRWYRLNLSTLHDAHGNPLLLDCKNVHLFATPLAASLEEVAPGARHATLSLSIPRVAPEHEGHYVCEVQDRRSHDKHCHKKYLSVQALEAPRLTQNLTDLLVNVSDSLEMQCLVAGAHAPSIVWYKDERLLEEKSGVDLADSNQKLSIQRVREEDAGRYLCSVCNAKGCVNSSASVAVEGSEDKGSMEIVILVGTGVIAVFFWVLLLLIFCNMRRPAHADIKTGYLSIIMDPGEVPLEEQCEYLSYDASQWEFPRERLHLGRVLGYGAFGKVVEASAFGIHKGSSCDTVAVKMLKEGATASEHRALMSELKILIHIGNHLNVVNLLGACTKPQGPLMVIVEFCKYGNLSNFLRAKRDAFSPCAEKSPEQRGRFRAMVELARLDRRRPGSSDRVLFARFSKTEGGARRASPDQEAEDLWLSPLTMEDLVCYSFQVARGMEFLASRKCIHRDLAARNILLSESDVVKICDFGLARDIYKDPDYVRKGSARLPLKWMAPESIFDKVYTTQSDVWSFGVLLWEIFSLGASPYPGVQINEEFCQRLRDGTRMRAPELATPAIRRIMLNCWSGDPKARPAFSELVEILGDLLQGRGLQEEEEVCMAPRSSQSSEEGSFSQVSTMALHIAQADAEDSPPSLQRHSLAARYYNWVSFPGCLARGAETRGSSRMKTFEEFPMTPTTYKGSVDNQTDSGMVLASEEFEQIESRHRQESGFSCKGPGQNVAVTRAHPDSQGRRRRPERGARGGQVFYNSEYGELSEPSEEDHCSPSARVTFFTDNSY
Sequence of Vascular endothelial growth factor receptor 1 (P17948 whole entry): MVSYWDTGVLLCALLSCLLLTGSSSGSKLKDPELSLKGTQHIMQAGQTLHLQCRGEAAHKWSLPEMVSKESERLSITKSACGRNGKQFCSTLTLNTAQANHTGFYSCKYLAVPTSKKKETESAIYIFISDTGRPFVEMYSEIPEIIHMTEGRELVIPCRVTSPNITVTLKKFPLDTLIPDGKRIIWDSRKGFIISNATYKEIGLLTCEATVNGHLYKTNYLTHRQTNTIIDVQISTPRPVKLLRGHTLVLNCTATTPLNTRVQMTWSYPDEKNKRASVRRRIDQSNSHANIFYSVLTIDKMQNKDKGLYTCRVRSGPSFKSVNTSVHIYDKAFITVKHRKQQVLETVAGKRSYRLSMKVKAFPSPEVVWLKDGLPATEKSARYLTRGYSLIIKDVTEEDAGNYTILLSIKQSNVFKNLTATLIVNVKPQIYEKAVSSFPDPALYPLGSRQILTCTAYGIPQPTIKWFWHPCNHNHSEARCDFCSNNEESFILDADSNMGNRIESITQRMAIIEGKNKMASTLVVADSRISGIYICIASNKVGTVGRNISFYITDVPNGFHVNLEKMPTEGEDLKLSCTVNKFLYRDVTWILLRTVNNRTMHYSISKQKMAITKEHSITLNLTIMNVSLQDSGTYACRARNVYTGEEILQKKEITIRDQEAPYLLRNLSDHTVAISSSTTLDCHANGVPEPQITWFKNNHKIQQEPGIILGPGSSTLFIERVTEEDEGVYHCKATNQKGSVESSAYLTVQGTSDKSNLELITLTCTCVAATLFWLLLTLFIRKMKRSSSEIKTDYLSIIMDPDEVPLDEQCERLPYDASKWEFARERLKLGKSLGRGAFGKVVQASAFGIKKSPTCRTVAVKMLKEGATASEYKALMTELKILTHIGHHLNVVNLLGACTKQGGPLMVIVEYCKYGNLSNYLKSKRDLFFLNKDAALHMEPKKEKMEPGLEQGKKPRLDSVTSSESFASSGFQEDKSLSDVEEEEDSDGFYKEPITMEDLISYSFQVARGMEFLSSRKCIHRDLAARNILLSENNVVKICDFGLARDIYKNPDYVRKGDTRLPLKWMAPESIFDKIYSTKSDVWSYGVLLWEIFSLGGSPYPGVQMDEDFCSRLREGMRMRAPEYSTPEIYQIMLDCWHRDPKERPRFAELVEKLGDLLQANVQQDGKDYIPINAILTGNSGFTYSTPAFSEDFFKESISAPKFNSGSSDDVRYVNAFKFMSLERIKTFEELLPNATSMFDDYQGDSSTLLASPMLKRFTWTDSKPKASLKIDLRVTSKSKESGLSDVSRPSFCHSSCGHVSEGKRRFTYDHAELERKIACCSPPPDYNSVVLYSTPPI
Sequence of Glycogen synthase kinase-3 beta (P49841 whole entry): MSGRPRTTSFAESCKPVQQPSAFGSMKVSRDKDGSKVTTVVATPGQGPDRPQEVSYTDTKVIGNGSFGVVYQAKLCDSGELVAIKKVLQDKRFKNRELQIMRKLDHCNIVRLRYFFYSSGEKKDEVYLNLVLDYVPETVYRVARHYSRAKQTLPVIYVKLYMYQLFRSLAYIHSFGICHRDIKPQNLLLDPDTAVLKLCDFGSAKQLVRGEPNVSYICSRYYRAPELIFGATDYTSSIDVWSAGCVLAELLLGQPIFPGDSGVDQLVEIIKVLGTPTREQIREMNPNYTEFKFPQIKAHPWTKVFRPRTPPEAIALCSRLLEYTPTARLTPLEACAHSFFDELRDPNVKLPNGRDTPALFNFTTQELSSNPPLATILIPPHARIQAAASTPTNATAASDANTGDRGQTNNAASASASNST

CC(C)COc1cc(OC2CCN(C)CC2)c2c(Nc3c(Cl)ccc4c3OCO4)ncnc2c1
IC50 (A549 [1]): 0.2 µM | IC50 [2]: > 10 µM | IC50 [3]: 0.007 µM | AUC(0-t) at 24 h [4]: 600 ng·h/mL

COc1cc(Oc2ccncc2)c2c(Nc3c(Cl)ccc4c3OCO4)ncnc2c1
IC50 (A549 [1]): 0.15 µM | IC50 [2]: 21.5 µM | IC50 [3]: 0.0095 µM | AUC(0-t) at 24 h [4]: 100 ng·h/mL

COc1cc(OC2CCN(C)CC2)c2c(Nc3c(Cl)ccc4c3OCO4)ncnc2c1
IC50 (A549 [1]): 0.15 µM | IC50 [2]: 21.5 µM | IC50 [3]: 0.01 µM | fraction unbound [5]: 0.25 | pKa [6]: 8.2 | logD [7]: 2.9 | AUC(0-t) at 24 h [4]: 50 ng·h/mL | solubility [8]: > 1000 µM

CN1CCN(CCOc2cc(OC3CCOCC3)c3c(Nc4c(Cl)ccc5c4OCO5)ncnc3c2)CC1 [SARACATINIB]
inhibition at 1 µM (A549 [9]): 70% | inhibition in vivo at 20 mg/kg/day (Calu-6 [10]): > 80% | bioavailability [11]: 92% | fraction unbound [12]: 0.14 | half-life [13]: 5 h | IC50 (HUVEC [14]): > 5 µM | Papp A→B [15]: > 30 ×10⁻⁶ cm/s | bioavailability [16]: 79% | inhibition in vivo at 20 mg/kg/day (Calu-6 [17]): > 80% | Vd [18]: 10 L/kg | IC50 [19]: > 100 µM | IC50 [20]: > 10 µM | Vd [21]: 11.6 L/kg | IC50 (A549 [1]): 0.14 µM | IC50 [2]: 20.9 µM | clearance [22]: 11.7 mL/min/kg | IC50 [23]: > 10 µM | IC50 [24]: > 10 µM | IC50 [25]: > 10 µM | fraction unbound [5]: 0.13 | IC50 [26]: 0.84 µM | IC50 [27]: > 10 µM | IC50 [28]: 14 µM | half-life [29]: 5 h | solubility [30]: 240 µM (≈ 130 µg/mL) | clearance [31]: 20 mL/min/kg | IC50 [32]: 10 µM | pKa [6]: 7.98 | inhibition in vivo at 6 mg/kg/day (NIH3T3): > 95% | half-life [33]: 7 h | logD [7]: 2.9 | fraction unbound [34]: 0.09 | IC50 [35]: 10 µM | IC50 (K562): 0.22 µM | AUC(0-t) at 24 h [4]: 12000 ng·h/mL | IC50 (Aurora kinase B): > 10 µM | IC50 [36]: > 10 µM | clearance [37]: 16.7 mL/min/kg | IC50 [38]: > 10 µM | half-life [39]: 40 h | Vd [40]: 10 L/kg | bioavailability [41]: > 50% | IC50 (HUVEC [42]): > 5 µM | IC50 [43]: > 10 µM

COc1ccc(Cl)c(Nc2ncnc3cc(OCC4CCN(C)CC4)c(OC)cc23)c1 [AZM-475271]
Vdss (Canis familiaris [44]): 43 L/kg | IC50 (A549 [1]): 0.48 µM | fraction unbound [5]: 0.075 | pKa [6]: 9 | T1/2 (Canis familiaris [45]): 4.2 h | logD [7]: 2 | solubility [8]: 324 µM (≈ 144 µg/mL) | bioavailability [41]: 42%
